pIC50: −log10 of the molar value.
Experiments:
[1] = molecular target: T1, ITK (Homo sapiens, UniProt Q08881); test: ITK inhibitor binding potency (LanthaScreen competitive binding assay); conditions: TR-FRET competitive binding, 10 nM ITK, 50 nM kinase tracer-236; pre-incubation condition not given; read-out: ITK Inhibition IC50
T1 sequence (Q08881 1-620): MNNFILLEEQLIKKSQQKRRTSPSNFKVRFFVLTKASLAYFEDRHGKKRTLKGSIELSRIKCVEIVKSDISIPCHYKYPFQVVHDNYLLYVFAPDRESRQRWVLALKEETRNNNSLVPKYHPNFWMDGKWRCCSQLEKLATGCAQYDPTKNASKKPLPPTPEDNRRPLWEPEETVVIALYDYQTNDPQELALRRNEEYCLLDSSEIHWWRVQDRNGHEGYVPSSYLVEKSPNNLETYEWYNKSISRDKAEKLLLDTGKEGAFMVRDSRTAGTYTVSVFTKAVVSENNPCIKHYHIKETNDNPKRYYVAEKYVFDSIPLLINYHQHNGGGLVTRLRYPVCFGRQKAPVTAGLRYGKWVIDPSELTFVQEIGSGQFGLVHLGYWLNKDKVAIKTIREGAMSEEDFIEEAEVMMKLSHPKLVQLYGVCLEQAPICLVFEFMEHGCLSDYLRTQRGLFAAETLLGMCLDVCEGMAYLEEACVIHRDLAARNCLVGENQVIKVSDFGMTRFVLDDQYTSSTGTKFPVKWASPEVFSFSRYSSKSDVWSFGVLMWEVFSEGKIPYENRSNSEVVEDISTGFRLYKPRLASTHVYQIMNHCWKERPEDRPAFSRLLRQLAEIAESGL
Description: The ability of candidate compounds to interact with ITK is quantitated by a competitive binding assay using the LanthaScreen technology developed by Life Technologies. This assay is based on the binding of a proprietary, Alexa Fluor™ 647-labeled, ATP-competitive kinase inhibitor (kinase tracer-236) to the ITK expression construct in the presence of a Europium-conjugated antibody, resulting in a FRET (fluorescence resonance energy transfer) signal. Displacement of the kinase tracer by compound results in a lower emission ratio upon excitation of the Europium chelate. Candidate compounds are designed as potential irreversible inhibitors of ITK, capable of ligating to an active site cysteine residue resulting in time dependent covalent binding. The time dependent nature of irreversible inhibition is investigated by performing the binding assay with and without a pre-incubation of compound and ITK. […] The inhibitory potency of candidate compounds is measured in 20 mM HEPES pH 7.5, 10 mM MgCl2, 0.01% BSA, 0.0005% Tween-20, and 2% DMSO in the presence of 10 nM ITK, 2 nM Eu-anti-GST antibody, and 50 nM kinase tracer-236 using a 384-well plate format. Background signal is defined in the absence of ITK and uninhibited signal is defined in the presence of vehicle (2% DMSO) alone. Compounds were evaluated in an 11 point dose-response ranging from 20 uM to 0.34 nM. The binding assays are performed under two preincubation conditions to evaluate time dependence of inhibition. For the pre-incubation assay, ITK and Eu-anti-GST antibody are pre-incubated with compound or vehicle for two hours prior to the addition of kinase tracer. The non-preincubated assay is run under conditions where ITK and Eu-anti-GST antibody are added to a mixture of compound and kinase tracer. IC50 values of compounds are determined using a 4 parameter logistical fit of emission ratio as a function of the concentration of compound.

[2] = system: ITK phosphorylation of its substrate, PLCγ1, at Y783; test: ITK target modulation assay (phospho-Y783 PLCγ1 immunoblot in Jurkat T cells); type: cell-based; conditions: Homo sapiens, Jurkat, 2 h, 2 hours compound, CD3/CD28 Dynabeads stimulation 100 sec, anti-phospho-Y783 PLCγ1 immunoblot, read-out: PLC-γ Inhibition IC50
Protocol: Target modulation was based upon the ability of a compound to inhibit ITK phosphorylation of its substrate, PLCγ1, at […]. Human Jurkat T cells were placed in snap-cap polypropylene tubes at 4 million per tube in 800 μL medium (RPMI1640 with 10% heat inactivated serum and […] 2-mercaptoethanol and supplemented with glutamine/penicillin/streptomycin). Compounds were added as 100 μL of 10× working stock solutions in medium with 1% DMSO (or medium with 1% DMSO for controls) and placed in a 37° C. incubator for 2 hours. Stimulation was carried out using CD3/CD28 Dynabeads to activate the T cell receptor and mimic antigen presenting cells. Beads were added for 100 sec at a ratio of 1 bead per cell, in 100 μL medium (or medium alone for unstimulated control). Starting at 70 sec, cells and beads were pelleted in a microfuge for 15 sec, the supernatant aspirated, and 50 μL lysis buffer was added per tube and mixed with the pellet at the 100 sec time point. Tubes were placed on a rotator for 30 min at 4° C., and cell debris was pelleted in a microfuge. Supernatant was mixed 1:1 with 2× Sample Buffer and subjected to SDS-polyacrylamide gel electrophoresis. After transfer to nitrocellulose, immunoblotting was done with anti-phospho-[…] PLCγ1 antibody. Immunoblots were visualized with ECL using horseradish peroxidase conjugated secondary antibody.

Structure (SMILES)	pIC50 [1]	pIC50 [2]
CN(C)C/C=C/C(=O)Nc1cc(-c2cnc3c(c2)c(-c2cccc(C#N)c2)cn3C)cc(C(F)(F)F)c1 [Example 70]	< 6.00	< 5.30
C=CC(=O)N(C)c1cccc(-c2cnc3[nH]cc(-c4ccnc(OC)c4)c3c2)c1 [Example 2, N-(3-(3-(2-Methoxypyridin-4-yl)-1H-pyrrolo[2,3-b]pyridin-5-yl)phenyl)-N-methylacrylamide]	≥ 7.00	5.30 to 6.00
CNc1nccc(-c2c[nH]c3ncc(-c4cc(NC(=O)/C=C/CN(C)C)cc(OC)c4)cc23)n1 [Example 46, (E)-4-(dimethyl-amino)-N-(3-methoxy-5-(3-(2-(methylamino)-pyrimidin-4-yl)-1H-pyrrolo[2,3-b]-pyridin-5-yl)-phenyl)but-2-enamide]	≥ 7.00	5.30 to 6.00
C=CC(=O)Nc1cc(OC)cc(-c2cnc3[nH]cc(-c4ccncn4)c3c2)c1 [Example 30, N-(3-methoxy-5-(3-(pyrimidin-4-yl)-1H-pyrrolo-[2,3-b]pyridin-5-yl)phenyl)-acrylamide]	≥ 7.00	≥ 6.00
CN(C)C/C=C/C(=O)Nc1cccc(-c2cnc3[nH]cc(-c4cn(C)c(=O)c5[nH]ccc45)c3c2)c1 [Example 6, (E)-4-(dimethyl-amino)-N-(3-(3-(6-methyl-7-oxo-6,7-dihydro-1H-pyrrolo[2,3-c]-pyridin-4-yl)-1H-pyrrolo[2,3-b]-pyridin-5-yl)-phenyl)but-2-enamide]	≥ 7.00	< 5.30
COc1cc(NC(=O)/C=C/CN(C)C)cc(-c2cnc3[nH]cc(-c4ccncc4)c3c2)c1 [Example 53, (E)-4-(dimethyl-amino)-N-(3-methoxy-5-(3-(pyridin-4-yl)-1H-pyrrolo[2,3-b]pyridin-5-yl)phenyl)but-2-enamide]	≥ 7.00	≥ 6.00
C=CC(=O)Nc1cc(-c2cnc3[nH]cc(-c4ccnc(NC)n4)c3c2)cc(C(F)(F)F)c1 [Example 3, N-(3-(3-(2-(Methylamino)pyrimidin-4-yl)-1H-pyrrolo[2,3-b]pyridin-5-yl)-5-(trifluoromethyl)phenyl)acrylamide]	≥ 7.00	≥ 6.00
C=CC(=O)Nc1cccc(-c2cnc3[nH]cc(-c4cncc(C#N)c4)c3c2)c1 [Example 8, N-(3-(3-(5-cyano-pyridin-3-yl)-1H-pyrrolo[2,3-b]-pyridin-5-yl)-phenyl)acrylamide]	≥ 7.00	5.30 to 6.00
COc1cc(NC(=O)/C=C/CN(C)C)cc(-c2cnc3[nH]cc(-c4ccncn4)c3c2)c1 [Example 52, (E)-4-(dimethyl-amino)-N-(3-methoxy-5-(3-(pyrimidin-4-yl)-1H-pyrrolo-[2,3-b]pyridin-5-yl)phenyl)but-2-enamide]	≥ 7.00	5.30 to 6.00
C=CC(=O)Nc1cc(-c2cnc3[nH]cc(-c4cccc(C#N)c4)c3c2)cc(C(F)(F)F)c1 [Example 7, N-(3-(3-(3-cyano-phenyl)-1H-pyrrolo[2,3-b]-pyridin-5-yl)-5-(trifluoromethyl)-phenyl)acrylamide]	≥ 6.00	≥ 6.00
Cc1cc(NC(=O)/C=C/CN(C)C)cc(-c2cnc3[nH]cc(-c4cccc(C#N)c4)c3c2)c1 [Example 76, (E)-N-(3-(3-(3-cyanophenyl)-1H-pyrrolo[2,3-b]-pyridin-5-yl)-5-methylphenyl)-4-(dimethyl-amino)but-2-enamide]		5.30 to 6.00
CN(C)C/C=C/C(=O)N(C)c1cncc(-c2cnc3[nH]cc(-c4ccnc(F)c4)c3c2)c1 [Example 74, (E)-4-(dimethyl-amino)-N-(5-(3-(2-fluoropyridin-4-yl)-1H-pyrrolo-[2,3-b]pyridin-5-yl)pyridin-3-yl)-N-methylbut-2-enamide]		≥ 6.00
COc1cc(-c2c[nH]c3ncc(-c4cncc(N(C)C(=O)/C=C/CN(C)C)c4)cc23)ccn1 [Example 73, (E)-4-(dimethyl-amino)-N-(5-(3-(2-methoxypyridin-4-yl)-1H-pyrrolo-[2,3-b]pyridin-5-yl)pyridin-3-yl)-N-methylbut-2-enamide]		≥ 6.00
C=CC(=O)Nc1cc(C)cc(-c2cnc3[nH]cc(-c4cccc(C#N)c4)c3c2)c1 [Example 75, N-(3-(3-(3-cyano-phenyl)-1H-pyrrolo[2,3-b]-pyridin-5-yl)-5-methylphenyl)-acrylamide]		5.30 to 6.00

The remaining lines, values ahead:

pIC50 [1]	pIC50 [2]	Structure (SMILES)
≥ 7.00	≥ 6.00	CN(C)C/C=C/C(=O)Nc1cncc(-c2cnc3[nH]cc(-c4ccnc(C#N)c4)c3c2)c1 [Example 4, (E)-N-(5-(3-(2-Cyanopyridin-4-yl)-1H-pyrrolo[2,3-b]pyridin-5-yl)pyridin-3-yl)-4-(dimethylamino)but-2-enamide]
≥ 7.00	≥ 6.00	CN(C)C/C=C/C(=O)Nc1cc(-c2cnc3[nH]cc(-c4cccc(C#N)c4)c3c2)cc(C(F)(F)F)c1 [Example 1, (E)-N-(3-(3-(3-Cyanophenyl)-1H-pyrrolo[2,3-b]pyridin-5-yl)-5-(trifluoromethyl)phenyl)-4-(dimethylamino)but-2-enamide]
≥ 7.00	≥ 6.00	COc1cc(NC(=O)/C=C/CN(C)C)cc(-c2cnc3[nH]cc(-c4ccnc(C)c4)c3c2)c1 [Example 37]
≥ 7.00	≥ 6.00	C=CC(=O)Nc1cncc(-c2cnc3[nH]cc(-c4ccncn4)c3c2)c1 [Example 50, N-(5-(3-(pyrimidin-4-yl)-1H-pyrrolo-[2,3-b]pyridin-5-yl)pyridin-3-yl)acrylamide]
≥ 7.00	≥ 6.00	Cc1cc(-c2c[nH]c3ncc(-c4cccc(NC(=O)/C=C/CN(C)C)c4)cc23)ccn1 [Example 48, (E)-4-(dimethyl-amino)-N-(3-(3-(2-methylpyridin-4-yl)-1H-pyrrolo-[2,3-b]pyridin-5-yl)phenyl)but-2-enamide]
≥ 7.00	≥ 6.00	CN(C)C/C=C/C(=O)Nc1cc(-c2cnc3[nH]cc(-c4ccnc5c4ccn5C)c3c2)cc(C(F)(F)F)c1 [Example 55, (E)-4-(dimethyl-amino)-N-(3-(1′-methyl-1H,1′H-[3,4′-bipyrrolo[2,3-b]pyridin]-5-yl)-5-(trifluoro-methyl)phenyl)-but-2-enamide]
≥ 7.00	≥ 6.00	C=CC(=O)Nc1cc(OC)cc(-c2cnc3[nH]cc(-c4cccc(C#N)c4)c3c2)c1 [Example 16, N-(3-(3-(3-cyano-phenyl)-1H-pyrrolo[2,3-b]-pyridin-5-yl)-5-methoxyphenyl)-acrylamide]
≥ 7.00	≥ 6.00	COc1cc(NC(=O)/C=C/CN(C)C)cc(-c2cnc3[nH]cc(-c4cccc(C#N)c4)c3c2)c1 [Example 19, (E)-N-(3-(3-(3-cyanophenyl)-1H-pyrrolo[2,3-b]-pyridin-5-yl)-5-methoxyphenyl)-4-(dimethyl-amino)but-2-enamide]
≥ 7.00	≥ 6.00	C=CC(=O)Nc1cc(OC)cc(-c2cnc3[nH]cc(-c4ccnc5[nH]ccc45)c3c2)c1 [Example 15, N-(3-(1H,1′H-[3,4′-bipyrrolo-[2,3-b]pyridin]-5-yl)-5-methoxy-phenyl)acrylamide]

— patent US10316038B2, “Pyrrolopyrimidine ITK inhibitors for treating inflammation and cancer” (ACLARIS THERAPEUTICS, INC., priority 2017, dated 2019)
